Assays:
Test in all cases: relative viability (nuclei count vs DMSO), 5 days (fraction); higher = more cells survive
[1] = test system: NCI-H2087
How it was run: (§1)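 Lung cancer cell lines were pin-tool dosed in 1536-well plates on the day after seeding, with either a lone drug or a fixed anchor-drug dose plus five library-drug doses (not always all listed) in √10 steps. Nuclei were counted on 4× images after 5 days. Relative viability is the ratio of treated-well to vehicle-well nuclei counts, with each value a median of duplicate plates.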

[2] = test system: NCI-H727
How it was run: as §1

[3] = test system: SK-LU-1
How it was run: as §1

[4] = test system: LXF-289
How it was run: as §1

[5] = test system: NCI-H3122
How it was run: as §1

[6] = test system: RERF-LC-KJ
How it was run: as §1

[7] = test system: LCLC-97TM1
How it was run: as §1

[8] = test system: NCI-H647
How it was run: as §1

[9] = test system: NCI-H322M
How it was run: as §1

[10] = test system: HCC-827
How it was run: as §1

[11] = test system: NCI-H1437
How it was run: as §1

[12] = test system: NCI-H2228
How it was run: as §1

[13] = test system: 201T
How it was run: as §1

[14] = test system: NCI-H1395
How it was run: as §1

[15] = test system: NCI-H1793
How it was run: as §1

[16] = test system: NCI-H1792
How it was run: as §1

[17] = test system: NCI-H1944
How it was run: as §1

[18] = test system: LCLC-103H
How it was run: as §1

[19] = test system: BEN
How it was run: as §1

[20] = test system: CAL-12T
How it was run: as §1

[21] = test system: NCI-H2405
How it was run: as §1

## CC(=O)O[C@@]12CO[C@@H]1C[C@H](O)[C@@]1(C)C(=O)[C@H](O)C3=C(C)[C@@H](OC(=O)[C@H](O)[C@@H](NC(=O)OC(C)(C)C)c4ccccc4)C[C@@](O)([C@@H](OC(=O)c4ccccc4)[C@H]21)C3(C)C [Docetaxel] + C[C@]1(O)C[C@@H](c2nc(-c3ccc4ccc(-c5ccccc5)nc4c3)c3c(N)nccn32)C1 [Linsitinib] (partner 1 µM)
[1]; first compound 0.0002 µM
  relative viability: 0.848
[1]; first compound 0.000632 µM
  relative viability: 0.68
[1]; first compound 0.002 µM
  relative viability: 0.301
[1]; first compound 0.006325 µM
  relative viability: 0.326
[1]; first compound 0.02 µM
  relative viability: 0.156
[2]; first compound 0.0002 µM
  relative viability: 0.384
[2]; first compound 0.000632 µM
  relative viability: 0.307
[2]; first compound 0.002 µM
  relative viability: 0.22
[2]; first compound 0.006325 µM
  relative viability: 0.211
[2]; first compound 0.02 µM
  relative viability: 0.21
[3]; first compound 0.0002 µM
  relative viability: 0.899
[3]; first compound 0.000632 µM
  relative viability: 0.437
[3]; first compound 0.002 µM
  relative viability: 0.406
[3]; first compound 0.006325 µM
  relative viability: 0.344
[3]; first compound 0.02 µM
  relative viability: 0.232
[4]; first compound 0.0002 µM
  relative viability: 0.989
[4]; first compound 0.000632 µM
  relative viability: 0.745
[4]; first compound 0.002 µM
  relative viability: 0.628
[4]; first compound 0.006325 µM
  relative viability: 0.144
[4]; first compound 0.02 µM
  relative viability: 0.106
[5]; first compound 0.0002 µM
  relative viability: 1
[5]; first compound 0.000632 µM
  relative viability: 1
[5]; first compound 0.002 µM
  relative viability: 0.79
[5]; first compound 0.006325 µM
  relative viability: 0.349
[5]; first compound 0.02 µM
  relative viability: 0.218
[6]; first compound 0.0002 µM
  relative viability: 0.864
[6]; first compound 0.000632 µM
  relative viability: 0.826
[6]; first compound 0.002 µM
  relative viability: 0.504
[6]; first compound 0.006325 µM
  relative viability: 0.207
[6]; first compound 0.02 µM
  relative viability: 0.145
[7]; first compound 0.000632 µM
  relative viability: 0.153
[7]; first compound 0.002 µM
  relative viability: 0.155
[7]; first compound 0.006325 µM
  relative viability: 0.144
[7]; first compound 0.02 µM
  relative viability: 0.112
[8]; first compound 0.0002 µM
  relative viability: 0.966
[8]; first compound 0.000632 µM
  relative viability: 0.623
[8]; first compound 0.002 µM
  relative viability: 0.123
[8]; first compound 0.006325 µM
  relative viability: 0.102
[8]; first compound 0.02 µM
  relative viability: 0.082
[9]; first compound 0.0002 µM
  relative viability: 0.852
[9]; first compound 0.000632 µM
  relative viability: 0.989
[9]; first compound 0.002 µM
  relative viability: 0.878
[9]; first compound 0.006325 µM
  relative viability: 0.547
[9]; first compound 0.02 µM
  relative viability: 0.374
[10]; first compound 0.0002 µM
  relative viability: 0.971
[10]; first compound 0.000632 µM
  relative viability: 0.927
[10]; first compound 0.002 µM
  relative viability: 0.892
[10]; first compound 0.006325 µM
  relative viability: 0.438
[10]; first compound 0.02 µM
  relative viability: 0.347
[11]; first compound 0.0002 µM
  relative viability: 0.964
[11]; first compound 0.000632 µM
  relative viability: 0.805
[11]; first compound 0.006325 µM
  relative viability: 0.124
[11]; first compound 0.02 µM
  relative viability: 0.0906
[12]; first compound 0.0002 µM
  relative viability: 0.326
[12]; first compound 0.000632 µM
  relative viability: 0.197
[12]; first compound 0.002 µM
  relative viability: 0.173
[12]; first compound 0.006325 µM
  relative viability: 0.155
[12]; first compound 0.02 µM
  relative viability: 0.129
[13]; first compound 0.0002 µM
  relative viability: 1.04
[13]; first compound 0.000632 µM
  relative viability: 1.07
[13]; first compound 0.002 µM
  relative viability: 0.944
[13]; first compound 0.006325 µM
  relative viability: 0.48
[13]; first compound 0.02 µM
  relative viability: 0.284
[14]; first compound 0.0002 µM
  relative viability: 1.05
[14]; first compound 0.000632 µM
  relative viability: 1.19
[14]; first compound 0.002 µM
  relative viability: 0.787
[14]; first compound 0.006325 µM
  relative viability: 0.431
[14]; first compound 0.02 µM
  relative viability: 0.336
[15]; first compound 0.0002 µM
  relative viability: 1.01
[15]; first compound 0.000632 µM
  relative viability: 0.939
[15]; first compound 0.002 µM
  relative viability: 0.666
[15]; first compound 0.006325 µM
  relative viability: 0.352
[15]; first compound 0.02 µM
  relative viability: 0.218
[16]; first compound 0.0002 µM
  relative viability: 0.539
[16]; first compound 0.000632 µM
  relative viability: 0.509
[16]; first compound 0.002 µM
  relative viability: 0.379
[16]; first compound 0.02 µM
  relative viability: 0.0833
[17]; first compound 0.0002 µM
  relative viability: 1.11
[17]; first compound 0.000632 µM
  relative viability: 1.13
[17]; first compound 0.002 µM
  relative viability: 1.18
[17]; first compound 0.006325 µM
  relative viability: 0.349
[17]; first compound 0.02 µM
  relative viability: 0.208
[18]; first compound 0.0002 µM
  relative viability: 0.934
[18]; first compound 0.000632 µM
  relative viability: 1.18
[18]; first compound 0.002 µM
  relative viability: 0.919
[18]; first compound 0.006325 µM
  relative viability: 0.479
[18]; first compound 0.02 µM
  relative viability: 0.503
[19]; first compound 0.0002 µM
  relative viability: 0.827
[19]; first compound 0.000632 µM
  relative viability: 0.812
[19]; first compound 0.002 µM
  relative viability: 0.473
[19]; first compound 0.006325 µM
  relative viability: 0.246
[19]; first compound 0.02 µM
  relative viability: 0.189
[20]; first compound 0.0002 µM
  relative viability: 0.725
[20]; first compound 0.000632 µM
  relative viability: 0.694
[20]; first compound 0.002 µM
  relative viability: 0.303
[20]; first compound 0.006325 µM
  relative viability: 0.184
[20]; first compound 0.02 µM
  relative viability: 0.14
[21]; first compound 0.0002 µM
  relative viability: 0.95
[21]; first compound 0.000632 µM
  relative viability: 0.913
[21]; first compound 0.002 µM
  relative viability: 0.667
[21]; first compound 0.006325 µM
  relative viability: 0.438
[21]; first compound 0.02 µM
  relative viability: 0.316

— the supplement of paper PMC10307832
